From patent US20080221134A1, “8-ALKYNYLXANTHINES AND DERIVATIVES” (priority 2006, published 2008) come the findings set out here.

For one assay, the target named is T1, Rat A1 AR (Rattus norvegicus, UniProt P25099).
T1 construct: Rat brain preparations were used for A1- and A2A adenosine receptor (AR); from tissue; host or cells: rat cortex
T1 sequence (P25099 1-326): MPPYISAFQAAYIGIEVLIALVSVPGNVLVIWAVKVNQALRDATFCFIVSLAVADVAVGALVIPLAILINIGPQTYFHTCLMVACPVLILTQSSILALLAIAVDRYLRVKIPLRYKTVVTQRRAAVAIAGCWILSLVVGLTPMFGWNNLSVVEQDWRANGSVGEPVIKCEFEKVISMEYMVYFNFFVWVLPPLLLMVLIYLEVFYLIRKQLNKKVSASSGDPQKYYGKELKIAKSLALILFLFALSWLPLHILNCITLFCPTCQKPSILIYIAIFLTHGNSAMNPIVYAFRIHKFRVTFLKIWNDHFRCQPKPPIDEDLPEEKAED
In words: Radioligand binding assay 1, rat A1 adenosine receptor. Particulars: rat cortex, [3H]CCPA. How it is done:
(§1) Rat brain preparations were used for A1- and A2A adenosine receptor (AR) and human recombinant cell samples for A1-, A2A- and A3 adenosine receptor radioligand binding studies. Affinity and selectivity was tested in displacement experiments with following radioligands: [^3H]CCPA for A1-adenosine receptors, [^3H]MSX-2 for A2A-receptors and [^3H]PSB-11 for A3-receptors. Results of these experiments are depicted in table 2b (human data) and table 2a (rat data). Radioligand binding test systems are e.g. generally described by Muller et al., Curr. Pharm. Des., 1996, 2, 501 and Weyler et al., ChemMedChem 2006, 1, 891 and references cited therein) These documents are incorporated herein by reference.

The next assay concerns the target T2, Rat A2A AR (Rattus norvegicus, UniProt P30543).
T2 construct: A2A adenosine receptors from rat striatum; from tissue; host or cells: rat striatum
The assay can be described thus: Radioligand binding assay 1, rat A2A adenosine receptor. The conditions noted are these: rat striatum, [3H]MSX-2. Here is the method:
as §1

A value given as a limit tells only on which side of the number the result lay.

T2 sequence (P30543 whole entry): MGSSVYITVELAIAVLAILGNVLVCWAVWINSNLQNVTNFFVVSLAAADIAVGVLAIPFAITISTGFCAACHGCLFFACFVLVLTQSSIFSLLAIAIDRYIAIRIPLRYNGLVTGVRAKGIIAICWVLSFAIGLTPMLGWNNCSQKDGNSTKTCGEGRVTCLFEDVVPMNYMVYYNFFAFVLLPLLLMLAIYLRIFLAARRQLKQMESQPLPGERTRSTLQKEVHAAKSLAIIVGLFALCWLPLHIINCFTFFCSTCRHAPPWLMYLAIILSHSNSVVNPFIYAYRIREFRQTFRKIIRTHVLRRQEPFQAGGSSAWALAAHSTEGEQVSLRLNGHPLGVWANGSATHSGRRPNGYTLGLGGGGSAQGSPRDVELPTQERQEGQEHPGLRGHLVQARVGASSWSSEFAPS

With `C#CCn1c(=O)c2c(nc(C#Cc3cccc(OCc4ccoc4)c3)n2C)n(C)c1=O` [drawing 479], the Ki on Rat A1 AR was greater than 1 µM; on Rat A2A AR it was 0.0664 ± 0.019 µM.

Turning to `C#CCn1c(=O)[nH]c2nc(C#Cc3ccc(OC)c(OC)c3)n(C)c2c1=O` [drawing 483], the Ki on Rat A1 AR is no less than 10 µM; on Rat A2A AR, 0.015 ± 0.002 µM.

In the case of `C#CCn1c(=O)c2c(nc(C#Cc3cccc(OC)c3)n2C)n(CCCO)c1=O` [drawing 484], the Ki on Rat A1 AR turned out to be 0.142 ± 0.008 µM; at Rat A2A AR, 0.0118 ± 0.0016 µM.

As for `C#CCn1c(=O)c2c(nc(C#Cc3cccc(OC)c3)n2C)n(CC)c1=O` [drawing 485], the Ki at Rat A1 AR is greater than 10 µM; at Rat A2A AR, 0.0499 ± 0.0097 µM.

As for `C#CCn1c(=O)c2c(nc(C#Cc3cccc(C)c3)n2C)n(CC)c1=O` [drawing 486], the values for the Ki on Rat A1 AR and at Rat A2A AR were greater than 10 µM and 0.0763 ± 0.0171 µM, respectively.

`C#CCn1c(=O)c2c(nc(C#Cc3ccc(OC)c(OC)c3)n2C)n(CC)c1=O` [drawing 487]: the Ki on Rat A1 AR is greater than 3 µM; on Rat A2A AR it was 0.0472 ± 0.0073 µM.

For `C#CCn1c(=O)c2c(nc(C#Cc3ccc(OC)c(OC)c3)n2C)n(CCN(C)C)c1=O` [drawing 489], the values for the inhibitory constant (Ki) on Rat A1 AR and at Rat A2A AR were 0.81 ± 0.145 µM and 0.054 ± 0.005 µM, respectively.

`C#CCn1c(=O)c2c(nc(C#Cc3cccc(OC)c3)n2C)n(CC=C)c1=O` [drawing 490]: the results for the Ki at Rat A1 AR and at Rat A2A AR were greater than 1 µM and 0.0418 ± 0.0043 µM, respectively.

On to `C#CCn1c(=O)c2c(nc(C#Cc3cccc(OC)c3)n2C)n(CCO)c1=O` [drawing 491], for which the Ki at Rat A1 AR is greater than 1 µM; at Rat A2A AR, 0.103 ± 0.015 µM.

As to `C#CCn1c(=O)c2c(nc(C#Cc3cccc(OC)c3)n2C)n(CC(O)CO)c1=O` (stereo not shown) [drawing 492], the Ki is greater than 1 µM on Rat A1 AR and 0.0698 ± 0.0171 µM on Rat A2A AR.

Regarding `C#CCn1c(=O)c2c(nc(C#Cc3ccc(OC)c(OC)c3)n2C)n(CC(O)CO)c1=O` (stereo not shown) [drawing 493], the figures for the Ki at Rat A1 AR and at Rat A2A AR were no less than 1 µM and 0.0423 ± 0.0057 µM, respectively.

With `C#CCn1c(=O)c2c(nc(C#Cc3ccc(OC)c(OC)c3)n2C)n(CCCOP(=O)(O)O)c1=O` [drawing 494], the Ki on Rat A1 AR turned out to be 0.136 ± 0.019 µM; at Rat A2A AR, 0.037 ± 0.011 µM.

On to `C#CCn1c(=O)c2c(nc(C#Cc3ccc(OCC)c(OCC)c3)n2C)n(CC)c1=O` [drawing 497], for which the Ki is greater than 1 µM at Rat A1 AR and 0.166 ± 0.05 µM at Rat A2A AR.

Consider `C#CCn1c(=O)c2c(nc(C#Cc3ccc(OC)c(OC)c3)n2C)n(CCOC)c1=O` [drawing 498], for which the results for the Ki at Rat A1 AR and on Rat A2A AR were greater than 1 µM and 0.0459 ± 0.0135 µM, respectively.

`C#CCn1c(=O)c2c(nc(C#Cc3ccc(OC)c(OC)c3)n2C)n(CCO)c1=O` [drawing 499]: the inhibition constant Ki was greater than 1 µM at Rat A1 AR and 0.0455 ± 0.0104 µM at Rat A2A AR.

In the case of `C#CCn1c(=O)c2c(nc(C#Cc3ccc(OC)c(OC)c3)n2C)n(CC#N)c1=O` [drawing 500], the Ki is greater than 1 µM at Rat A1 AR and 0.04 ± 0.0006 µM on Rat A2A AR.

For `C#CCn1c(=O)c2c(nc(C#Cc3ccc(OC)c(OC)c3)n2C)n(CCC#N)c1=O` [drawing 501], the Ki on Rat A1 AR is greater than 1 µM; at Rat A2A AR, 0.0764 ± 0.0329 µM.

Take `C#CCn1c(=O)c2c(nc(C#Cc3ccc(OC)c(OC)c3)n2C)n(CC(C)O)c1=O` (stereo not shown) [drawing 502]: the Ki stood at 0.189 ± 0.033 µM at Rat A1 AR and 0.0133 ± 0.0014 µM at Rat A2A AR.

Regarding `C#CCn1c(=O)c2c(nc(C#Cc3ccc(OC)c(OC)c3)n2C)n(Cc2ccco2)c1=O` [drawing 503], the Ki at Rat A1 AR was 0.0768 ± 0.0229 µM; at Rat A2A AR it was 0.00674 ± 0.001 µM.

For `C#CCn1c(=O)c2c(nc(C#Cc3ccc(OC)c(OC)c3)n2C)n(CCC2CO2)c1=O` (stereo not shown) [drawing 505], the results for the Ki at Rat A1 AR and on Rat A2A AR were 0.064 ± 0.0054 µM and 0.0192 ± 0.0014 µM, respectively.

For the compound `C#CCn1c(=O)c2c(nc(C#Cc3ccc(OC)c(OC)c3)n2C)n(CCCOC)c1=O` [drawing 506], the Ki was greater than 1 µM at Rat A1 AR and 0.044 ± 0.0062 µM on Rat A2A AR.

As to `C#CCn1c(=O)c2c(nc(C#Cc3ccc(OC)c(OC)c3)n2C)n(CCCC#N)c1=O` [drawing 508], the Ki on Rat A1 AR is greater than 1 µM; at Rat A2A AR, 0.0229 ± 0.0076 µM.

As for `C#CCn1c(=O)c2c(nc(C#Cc3ccc(OC)c(OC)c3)n2C)n(Cc2ccoc2)c1=O` [drawing 509], the Ki was greater than 1 µM at Rat A1 AR and 0.00516 ± 0.00191 µM at Rat A2A AR.

By Ki is commonly meant the equilibrium dissociation constant of an inhibitor or competing ligand from its target. A high value points to lower affinity.
